Experimental data as given in EP2657347A1, “Electrochemical competitive assay and use thereof” (Université Paris Diderot - Paris 7, priority 2012, dated 2013).

Experiments:
[1] = tested on: D-Apt49; experiment: Redox-mediated catalytic cyclic voltammetry titration with aptamer; assay type: binding; details: specificity / enantioselectivity test, Figure 2B
Protocol: (§1) All experiments were performed in 5 mM Tris buffer (pH 7) containing 10 mM MgCl2 and 50 mM NaCl (Recognition Buffer, RBr). The L-Tym concentration is always 5 µM. For cyclic voltammetric experiments, 1 µM [Os(bpy)3]2+ with 5 µM 1-Tym in a droplet of 50 µL RBr was used. So, before each experiment, the droplet is shaking with a micropipette. This procedure is repeated until we obtain a reproducible and stable voltammogram. Mother solution of Fc-1-Tym was a […] solution in DMF. This product is conserved at 4°C and seal with parafilm. Before each experiment, this solution is diluted 10 times in stabilized DMF, such as 0.2 µL in 50 µL of RBr leads to 5 µM of Fc-1-Tym.
(§2) Cyclic voltammetry measurements were performed with an AUTOLAB PGSTAT 12 potentiostat/galvanostat controlled by computer, and the data were acquired using GPES 4.9007 software (EcoChemie, The Netherlands). Small self-contained electrochemical cells made of 3 screen-printed electrodes on a flat substrate were used for all experiments. The electrodes were printed using a DEK model-65 screen-printer. Working electrodes were 4 mm diameter screen-printed carbon electrodes prepared using a commercial carbon ink (Electrodag PF-470 A) deposited on the top of an underlying Ag layer (Electrodag 418 SS). Counter electrode was obtained using an Ag ink (Electrodag 418 SS).
(§3) Before experiments, the screen-printed carbon electrodes were coated with bovine serum albumin (BSA) by immersing the electrodes in a 1 mg/mL BSA solution for 10 minutes at room temperature. The BSA-modified electrodes were next cycled between 0 V and 0.8 V at v = 0.05 V/s, until of the capacitive background current in cyclic voltammetry was stablized.
The 49-mer aptamer we have used (see here above) is a sequence similar to the one that was previously selected by Vianini et al and successfully applied to chromatographic- and fluorescence-based L-Tym assays. Since direct electrochemical oxidation of phenolic compounds generally leads to electrode passivation and thus to poorly reproducible anodic peak current in cyclic voltammetry (CV), the electrochemical detection of L-Tym was performed by redox-mediated catalytic oxidation of the phenolic function. For such a purpose, we have used the one-electron redox mediator couple [Os^III/II(bpy)3]^3+/2+ which, according to its relatively high standard potential (E^0=+0.58 V vs. Ag/AgCl), is capable to efficiently catalyze the oxidation of phenolic compounds. [drawing 51]
The linear dependence of the peak current with both the square root of scan rate, v, and L-Tym concentration, indicates conditions of total catalysis for which the catalytic peak current response, ip, can be expressed by eq 1. ip = 0.609nFSCT^0 sqrt(DT)sqrt(fv/RT) [formula] where n is the number of electron involved in the catalytic reaction, F the Faraday constant, S the electrode area, C^0T the bulk concentration of L-Tym, and DT the diffusion coefficient of L-Tym. After aptamer addition, the binding reaction (eq 2) is rapidly set at equilibrium. [drawing 53] with Kd the dissociation constant. On the basis of a classical law of action mass and mass balance (i.e., C^0T = CT + CRT, with CT and CRT the free and receptor-bound target concentrations), and assuming a 1:1 binding stoichiometry, the free (χƒ) mole fraction of target in the bulk solution can thus be estimated by eq 3. χf = (CT)/(CT^0) = 1-(Kd + CT^0 + CR^0 -sqrt(((Kd+CT^0+CR^0))^2 -4CT^0 CR^0))/(2CT^0) [formula]
Here, C^0R is the total concentration of the aptamer receptor added to the solution. Under the assumption of a slow interconversion of free and bound target on the time scale of CV experiments, the catalytic peak current can thus be expressed by a linear combination of the catalytic currents related to the free and bound target through eq 4. ip = 0.609nFSCT^0 sqrt(fv/RT)[χfsqrt(DT)+(1-χf)sqrt(DRT)] [formula] where DT and DRT are the diffusion coefficients of the free and receptor-bound target, respectively. […]

[2] = target: L-Apt49; experiment: Redox-mediated catalytic cyclic voltammetry titration with mirror-image aptamer; assay type: binding; details: nonlinear fit of eq 5; catalytic peak current, Tris buffer
Protocol: as §1
Cyclic voltammetry measurements were performed with an AUTOLAB PGSTAT 12 potentiostat/galvanostat controlled by computer, and the data were acquired using GPES 4.9007 software (EcoChemie, The Netherlands). Small self-contained electrochemical cells made of 3 screen-printed electrodes on a flat substrate were used for all experiments. […]
From the combination of eqs 3 and 5 and knowledge of the catalytic peak currents determined both in the absence of aptamer (ip^0) [formula] and at extrapolated infinite aptamer concentration (ip^(∞)), [formula] we can write eq 5 which allows to predict the normalized peak current response decreases as a function of aptamer and target concentrations. […]

[3] = tested on: D-Apt49; experiment: Homogeneous electrochemical competitive binding assay in Tris buffer
Protocol: as §1, §2, §3
The competitive assay can be described by the two equilibrated binding reactions 6a and 6b, in which Fc-L-Tym is L-tyrosinamide labeled by a redox-active ferrocene group. The ferrocenyl label was here incorporated on the ―OH position of the phenolic group (Scheme 1). Note that under this condition the catalytic oxidation of the phenolic residue is no more possible and only the ferrocene labeled molecule can be detected. [drawing 63] [drawing 64] with Kd = (CTCR)/CRT [formula] Kd^(*) = (CT^(*)CR)/CRT^(*) [formula] where CR is the concentration of free aptamer receptor. […] Ideally, the two binding constants should be as close as possible (Kd ≈ K^*d). The value of K^*d was determined by monitoring in CV the reversible response of 5 µM Fc-L-Tym solution as a function of increasing concentrations of D-Apt49.
The competitive binding assay was achieved from two separate solutions containing a starting mixture of 5 µM Fc- L-Tym and 3 µM or 10 µM D-Apt49, and to which an increasing amount of L-Tym was added. […]

[4] = target: D-Apt49; experiment: Cyclic voltammetry titration of ferrocene-labeled target with aptamer; assay type: binding; details: 5 µM Fc-L-Tym, increasing D-Apt49, Tris buffer pH 7.0; fit of eq 5; also used as predetermined value in competitive fits
Protocol: as §1
Cyclic voltammetry measurements were performed with an AUTOLAB PGSTAT 12 potentiostat/galvanostat controlled by computer, and the data were acquired using GPES 4.9007 software (EcoChemie, The Netherlands). […]
The competitive assay can be described by the two equilibrated binding reactions 6a and 6b, in which Fc-L-Tym is L-tyrosinamide labeled by a redox-active ferrocene group. […] Note that under this condition the catalytic oxidation of the phenolic residue is no more possible and only the ferrocene labeled molecule can be detected. […] The value of K^*d was determined by monitoring in CV the reversible response of 5 µM Fc-L-Tym solution as a function of increasing concentrations of D-Apt49. […]

[5] = tested on: L-Apt49; experiment: Cyclic voltammetry of ferrocene-labeled target with mirror-image aptamer; assay type: binding; details: not shown
[6] = target: D-Apt49; experiment: Homogeneous electrochemical competitive binding assay in 20% fetal bovine serum
Protocol: • Figure 1: Electrochemically competitive assay of the invention. Left-hand column: before the addition of the sample: a first redox signal is measured. Right-hand column: after the addition of a sample containing the target to be detected or measured: a second redox signal is measured. (A) Homogeneous electrochemically competitive assay: the presence of the target disrupts the complex formed between the oligonucleotide ligand and the redox-labeled target. […] (B) Heterologous electrochemically competitive assay, wherein the oligonucleotide ligand is attached to a solid phase: the presence of the target disrupts the complex formed between the oligonucleotide ligand and the redox-labeled target, thereby inducing a better detection of the redox labeled-target. […] (C) Heterologous electrochemically competitive assay, wherein the oligonucleotide ligand is attached to the electrode: the presence of the target disrupts the complex formed between the oligonucleotide ligand and the redox-labeled target, thereby reducing the detection of the redox labeled-target. […] (f) CV of 1 µM [Os(bpy)3]^2+ alone. […] Error bars: standard deviations from 3 measurements. Plain lines: fits of eq 5 to the experimental data. • Figure 3: (A) CVs (v = 0.05 V s^-1) of 5 mM Tris buffer (pH 7.0) containing 50 mM NaCl, 10 mM Mg^2+, 5 µM Fc-L-Tym and (a) 0 µM, (b) 1 µM, (c) 2 µM, (d) 3 µM, (e) 4 µM (f) 5 µM (g) 7.5 µM (h) 10 µM (i) 12.5 µM and (j) 15 µM of D-Apt49. (B) Normalized anodic peak current response as a function of aptamer concentration. Each data is the average of 3 measurements. Error bars are standard deviations. Plain line: fit of eq 5 to the experimental data. • Figure 4: Competitive binding curves performed in (A) 5 mM Tris buffer (pH 7 + 50 mM NaCl + 10 mM MgCl2) or (B) 20% fetal bovine serum (simply diluted with a 4 mM MgCl2 aqueous solution) as a function of (●, ★, ▼, Δ) L-Tym or (○) D-Tym concentration. (*) Assay of 5 µM L-Tym in the presence of 5 mM D-Tym. The Fc-L-Tym concentration was always C^0T*= 5 µM, whereas the D-Apt49 concentrations were C^0R: (●) 3, (★,○,*) 10, (▼) 40 and (Δ) 100 µM.
The enantiospecificity of the assay was next characterized using the same methodology but for solutions containing the D-Tym enantiomer. […] To evaluate the enantiospecific performance of the aptamer, the assay of trace amount of L-Tym in the presence of a large excess of D-Tym was examined and, as reported in Figure 4A, it has been found possible to detect as low as 5 µM L-Tym in the presence of 5 mM D-Tym. This remarkable performance means that as low as 0.1 % of an enantiomeric impurity in a nonracemic mixture can be assayed in a very short analysis time (<1 min). This is competitive with conventional separation techniques, and one order of magnitude lower than the 1% currently attainable by NMR. Finally, the ability to perform an assay under realistic biological conditions was examined. For such purpose, homogenous electrochemical competitive binding assays of 5-fold diluted fetal bovin serum samples spiked with known amounts of […] were then performed (Figure 4B).

NC(=O)[C@H](N)Cc1ccc(O)cc1 [D-Tym, d-tyrosinamide]
catalytic current response upon the addition of D-Apta49 [1]: no significant catalytic current response decrease
Kd [2]: 3.8 ± 0.7 µM
displacement of Fc-L-Tym from D-Apt49 ([3]; 0-100 µM concentration range, 10 µM D-Apt49, Tris buffer): no displacement
response change ([3]; concentrations as high as few millimolar): without significant response change

NC(=O)[C@@H](N)Cc1ccc(O[c-]2cccc2)cc1.[Fe+2].c1cc[cH-]c1 [Fc-L-Tym, O-Ferrocenyltyrosynamide]
Kd [4]: 1.2 ± 0.4 µM
current change in the presence of L-Apt49 [5]: absence of current change
Kd ([6]; 5-fold diluted fetal bovine serum, average of the fitted curves, read-out: K^*d (average value)): 75 µM
Kd ([6]; 20% fetal bovine serum, 5 µM Fc-L-Tym, 40 µM D-Apt49, read-out: K^*d): 75 µM
Kd ([6]; 20% fetal bovine serum, 5 µM Fc-L-Tym, 100 µM D-Apt49, read-out: K^*d): 75 µM

N[C@@H](Cc1ccc(O)cc1)C(=O)O [L-tyrosine]
catalytic current response upon the addition of D-Apta49 [1]: no significant catalytic current response decrease

CC(=O)Nc1ccc(O)cc1 [paracetamol]
catalytic current response upon the addition of D-Apta49 [1]: no significant catalytic current response decrease
